Measurements from patent EP4793641A1, “NOVEL METHOD FOR ANALYZING BIOMOLECULAR INTERACTIONS” (Kyoto University, priority 2023, dated 2025).
Non-standard residues stand in square brackets, D forms with d. Residues, ends and D or L forms follow the SMILES beside them. *: point of attachment. pS = N[C@@H](COP(=O)(O)O)C(=O)O; Mob = COc1ccc(C*)cc1

biological target: T1, interactions between Talin 1 (TLN1) and integrin subunit beta (ITGB) (Homo sapiens, UniProt Q9Y490); test: Flip-flop detection mechanism on DNA origami (LgBit/SmBit luminescence), inhibitor screening; type: biochemical; settings: inhibition of binding between TLN1 and ITBG
T1 construct: LgBit or SmBit (N-terminal of the HaloTag); made in house
Text: Two types of systems, i.e., flip-flop detection mechanism and switch detection mechanism, were constructed by using HaloTag, LgBit, SmBit, TLN1, and ITGB. Each of TLN1 (Uniprot ID: Q9Y490) and ITGB1 (Uniprot ID: P05556) was cloned from the registered genetic information. HaloTAg has three chemically modifiable locations at a ligand recognition site, C-terminus, and N-terminus. In this Example, a single-stranded DNA for attaching to DNA origami was connected to a ligand recognition site of HaloTag, a subunit of an interaction complex was connected to the C-terminus, and LgBit or SmBit was connected to the N-terminus.
The outline of the system is disclosed in Figure 23. When TLN1 and ITBG are in a bound state in this system, LgBit and SmBit are at spatially separated positions from each other, with a HaloTag interposed therebetween. In this regard, if an inhibitor is added, complex formation of TLN1 and ITBG is inhibited. As a result, a LgBit-SmBit complex can be formed, and a luminescence reaction progresses.
As a candidate drug for inhibiting the binding between TLN1 and ITBG, peptide inhibitors consisting of 13 amino acids prepared by modifying amino acids in an intracellular region of ITGB3 have been designed (Shen B. et al., A directional switch of integrin signaling and a new antithrombotic strategy. Nature 503, 131-135 (2013)). IC50 values for the peptides shown in the following table were calculated by using the flip-flop detection mechanism described in Example 11 for optimizing the sequence. In this manner, the effect of a large number of compounds on the interaction with a target protein can be readily analyzed in the system of the present disclosed.

| Molecule | Inhibitory activity |
| --- | --- |
| CSCC[C@H](NC(=O)[C@H](Cc1c[nH]c2ccccc12)NC(=O)[C@H](CCCCN)NC(=O)[C@H](CS)NC(=O)[C@H](CC(N)=O)NC(=O)[C@H](CCSC)NC(=O)[C@H](CCCCN)NC(=O)[C@H](CCC(=O)O)NC(=O)[C@H](CCCCN)NC(=O)[C@H](CCC(=O)O)NC(=O)[C@H](Cc1ccccc1)NC(=O)[C@@H](N)CCCCN)C(=O)N[C@@H](CCCNC(=N)N)C(=O)O [FIYM12] (H-KFEKEKMNCKWMR-OH) | no inhibition |
| CSCC[C@H](NC(=O)[C@H](CCCNC(=N)N)NC(=O)[C@H](CCC(=O)O)NC(=O)[C@H](CCCCN)NC(=O)[C@H](CCC(=O)O)NC(=O)[C@H](Cc1ccccc1)NC(=O)[C@@H](N)CCCCN)C(=O)N[C@@H](CCSC)C(=O)N[C@@H](CS)C(=O)N[C@@H](CCCCN)C(=O)N[C@@H](Cc1c[nH]c2ccccc12)C(=O)N[C@@H](CCSC)C(=O)N[C@H](C(=O)O)[C@@H](C)O [FIYM33] (H-KFEKERMMCKWMT-OH) | no inhibition |
| CSCC[C@H](NC(=O)[C@H](CCCNC(=N)N)NC(=O)[C@H](CCC(=O)O)NC(=O)[C@@H](N)Cc1ccccc1)C(=O)N[C@@H](CC(N)=O)C(=O)N[C@@H](CS)C(=O)N[C@@H](CCCCN)C(=O)N[C@@H](Cc1c[nH]c2ccccc12)C(=O)N[C@@H](CCSC)C(=O)N[C@H](C(=O)O)[C@@H](C)O [FIYM25] (H-FERMNCKWMT-OH) | no inhibition |
| COc1ccc(CSC[C@H](NC(=O)[C@H](CC(N)=O)NC(=O)[C@H](CCSC)NC(=O)[C@H](CCCCN)NC(=O)[C@H](CCC(=O)O)NC(=O)[C@H](CCCCN)NC(=O)[C@H](CCC(=O)O)NC(=O)[C@H](Cc2ccccc2)NC(=O)[C@@H](N)CCCCN)C(=O)N[C@@H](CCCCN)C(=O)N[C@@H](Cc2c[nH]c3ccccc23)C(=O)N[C@@H](CCSC)C(=O)N[C@H](C(=O)O)[C@@H](C)O)cc1 [FIYM42] (H-KFEKEKMNC(Mob)KWMT-OH) | no inhibition |
| CSCC[C@H](NC(=O)[C@H](CCCNC(=N)N)NC(=O)[C@H](CCC(=O)O)NC(=O)[C@H](CCCCN)NC(=O)[C@H](CCC(=O)O)NC(=O)[C@H](Cc1ccccc1)NC(=O)[C@@H](N)CCCNC(=N)N)C(=O)N[C@@H](CC(N)=O)C(=O)N[C@@H](CS)C(=O)N[C@@H](CCCCN)C(=O)N[C@@H](Cc1c[nH]c2ccccc12)C(=O)N[C@@H](CCSC)C(=O)N[C@H](C(=O)O)[C@@H](C)O [FIYM30] (H-RFEKERMNCKWMT-OH) | no inhibition |
| CSCC[C@H](NC(=O)[C@H](CCCCN)NC(=O)[C@H](CCC(=O)O)NC(=O)[C@H](CCCCN)NC(=O)[C@H](CCC(=O)O)NC(=O)[C@H](Cc1ccccc1)NC(=O)[C@H](CCCCN)NC(=O)[C@H](C)NC(=O)[C@H](Cc1ccccc1)NC(=O)[C@@H](N)CCC(=O)O)C(=O)N[C@@H](CC(N)=O)C(=O)N[C@@H](C)C(=O)N[C@@H](CCCCN)C(=O)N[C@@H](Cc1c[nH]c2ccccc12)C(=O)N[C@@H](CC(=O)O)C(=O)N[C@H](C(=O)O)[C@@H](C)O [FIYM5] (H-EFAKFEKEKMNAKWDT-OH) | no inhibition |
| CSCC[C@H](NC(=O)[C@H](CCCCN)NC(=O)[C@H](CCC(=O)O)NC(=O)[C@H](CCCNC(=N)N)NC(=O)[C@H](CCC(=O)O)NC(=O)[C@H](Cc1ccccc1)NC(=O)[C@@H](N)CCCCN)C(=O)N[C@@H](CCSC)C(=O)N[C@@H](CS)C(=O)N[C@@H](CCCCN)C(=O)N[C@@H](Cc1c[nH]c2ccccc12)C(=O)N[C@@H](CCSC)C(=O)N[C@H](C(=O)O)[C@@H](C)O [FIYM32] (H-KFEREKMMCKWMT-OH) | no inhibition |
| CSCC[C@H](NC(=O)[C@H](CCCCN)NC(=O)[C@H](CCC(=O)O)NC(=O)[C@H](CCCCN)NC(=O)[C@H](CCC(=O)O)NC(=O)[C@H](Cc1ccccc1)NC(=O)[C@@H](N)CCCCN)C(=O)N[C@@H](CC(N)=O)C(=O)N[C@@H](C)C(=O)N[C@@H](CCCCN)C(=O)N[C@@H](Cc1c[nH]c2ccccc12)C(=O)N[C@@H](CCSC)C(=O)N[C@H](C(=O)O)[C@@H](C)O [FIYM9] (H-KFEKEKMNAKWMT-OH) | no inhibition |
| CSCC[C@H](NC(=O)[C@H](CCCCN)NC(=O)[C@H](CCC(=O)O)NC(=O)[C@H](CCCCN)NC(=O)[C@H](CCC(=O)O)NC(=O)[C@H](Cc1ccccc1)NC(=O)[C@@H](N)CCCCN)C(=O)N[C@@H](CC(N)=O)C(=O)N[C@@H](COP(=O)(O)O)C(=O)N[C@@H](CCCCN)C(=O)N[C@@H](Cc1c[nH]c2ccccc12)C(=O)N[C@@H](CCSC)C(=O)N[C@H](C(=O)O)[C@@H](C)O [FIYM36] (H-KFEKEKMN[pS]KWMT-OH) | no inhibition |
| CC[C@H](C)[C@H](NC(=O)[C@@H]1CCCN1C(=O)[C@H](CC(N)=O)NC(=O)[C@H](CCC(=O)O)NC(=O)CNC(=O)[C@@H](NC(=O)[C@H](CC(=O)O)NC(=O)[C@H](Cc1c[nH]c2ccccc12)NC(=O)[C@H](CCCCN)NC(=O)[C@H](C)NC(=O)[C@H](CC(N)=O)NC(=O)[C@H](CCSC)NC(=O)[C@H](CCCCN)NC(=O)[C@H](CCC(=O)O)NC(=O)[C@H](CCCCN)NC(=O)[C@H](CCC(=O)O)NC(=O)[C@H](Cc1ccccc1)NC(=O)[C@H](CCCCN)NC(=O)[C@H](C)NC(=O)[C@H](Cc1ccccc1)NC(=O)[C@@H](N)CCC(=O)O)[C@@H](C)O)C(=O)N[C@@H](Cc1ccc(O)cc1)C(=O)N[C@@H](CCCCN)C(=O)O [FIYM7] (H-EFAKFEKEKMNAKWDTGENPIYK-OH) | no inhibition |

same assay, conditions: inhibition of binding between TLN1 and ITBG, read-out: Inhibitory activity

| Molecule | IC50 [µM] |
| --- | --- |
| CSCC[C@H](NC(=O)[C@H](CCCCN)NC(=O)[C@H](CCC(=O)O)NC(=O)[C@H](CCCCN)NC(=O)[C@H](CCC(=O)O)NC(=O)[C@H](Cc1ccccc1)NC(=O)[C@@H](N)CCCNC(=N)N)C(=O)N[C@@H](CC(N)=O)C(=O)N[C@@H](CS)C(=O)N[C@@H](CCCCN)C(=O)N[C@@H](Cc1c[nH]c2ccccc12)C(=O)N[C@@H](CCSC)C(=O)N[C@H](C(=O)O)[C@@H](C)O [FIYM26] (H-RFEKEKMNCKWMT-OH) | 76.9 |
| KF(-Me)EKEKMNCKWMT (KFEKEKMNCKWMT) [FIYM19] | 212 |
| CSCC[C@H](NC(=O)[C@H](CCCCN)NC(=O)[C@H](CCC(=O)O)NC(=O)[C@H](CCCCN)NC(=O)[C@H](CCC(=O)O)NC(=O)[C@@H](N)Cc1ccccc1)C(=O)N[C@@H](CC(N)=O)C(=O)N[C@@H](CS)C(=O)N[C@@H](CCCCN)C(=O)N[C@@H](Cc1c[nH]c2ccccc12)C(=O)N[C@@H](CCSC)C(=O)N[C@H](C(=O)O)[C@@H](C)O [FIYM23] (H-FEKEKMNCKWMT-OH) | 444 |

same assay, conditions: inhibition of binding between TLN1 and ITBG, µM, read-out: Inhibitory activity

| Molecule | IC50 [µM] |
| --- | --- |
| CSCC[C@H](NC(=O)[C@H](CCCCN)NC(=O)[C@H](CCC(=O)O)NC(=O)[C@H](CCCCN)NC(=O)[C@H](CCC(=O)O)NC(=O)[C@H](Cc1ccccc1)NC(=O)[C@H](CCCCN)NC(=O)[C@H](Cc1c[nH]cn1)NC(=O)[C@H](Cc1c[nH]cn1)NC(=O)[C@H](Cc1c[nH]cn1)NC(=O)[C@H](Cc1c[nH]cn1)NC(=O)[C@H](Cc1c[nH]cn1)NC(=O)[C@H](Cc1c[nH]cn1)NC(=O)[C@@H](N)CCSC)C(=O)N[C@@H](CC(N)=O)C(=O)N[C@@H](CS)C(=O)N[C@@H](CCCCN)C(=O)N[C@@H](Cc1c[nH]c2ccccc12)C(=O)N[C@@H](CCSC)C(=O)N[C@H](C(=O)O)[C@@H](C)O [FIYM49] (H-MHHHHHHKFEKEKMNCKWMT-OH) | 107 |
| CSCC[C@H](NC(=O)[C@H](CCCCN)NC(=O)[C@H](CCC(=O)O)NC(=O)[C@H](CCCCN)NC(=O)[C@H](CCC(=O)O)NC(=O)[C@H](Cc1ccccc1)NC(=O)[C@@H](N)CCSC)C(=O)N[C@@H](CC(N)=O)C(=O)N[C@@H](CS)C(=O)N[C@@H](CCCCN)C(=O)N[C@@H](Cc1c[nH]c2ccccc12)C(=O)N[C@@H](CCSC)C(=O)N[C@H](C(=O)O)[C@@H](C)O [FIYM47] (H-MFEKEKMNCKWMT-OH) | 71.4 |
